In US20250186600A1, “EXCIPIENT COMPOUNDS FOR PROTEIN FORMULATIONS” (Comera Life Sciences, Inc., priority 2020, published 2025):

Experiments:
[1] = system: omalizumab; assay: DLS viscosity of concentrated omalizumab with nicotinamide mononucleotide and itaconic acid (Example 52); format: physicochemical; conditions: 20 mM His HCl pH 6, excipient stock 1 M or solubility limit
Procedure: These substances were used as excipients in the following experiment.
The resulting concentrated formulation was analyzed by A280 for protein concentration by making serial dilutions of the concentrated formulation in 20 mM His HCl, loading 100 microliters of each dilution into a UV clear 96 half-well microplate (Greiner Bio-One, Austria), and measuring absorbance at a wavelength of 280 nm with a Synergy HT plate reader (BioTek, Winooski, VT). The blanked, path-length-corrected A280 measurement for each sample was then divided by the respective extinction coefficient and multiplied by the dilution factor to determine the protein concentration. […] The concentrated protein formulation was then combined with the stock excipient solution or a control at a ratio of 9 parts protein formulation: 1 part excipient solution or buffer (for the control), and aliquots were added to the wells of a 384 well microplate (Aurora Microplates, Whitefish, MT). […] After the microplate was shaken, 2 microliters of a 5-fold dilution of polyethylene glycol surface-modified gold nanoparticles having a diameter of 100 nm (nanoComposix, San Diego, CA) in 20 mM His HCl were added to each sample well. […]

[2] = system: bovine gamma globulin (BGG); assay: Normalized viscosity of BGG with caffeine and a secondary excipient (Example 40); format: physicochemical; conditions: Excipient A caffeine 15 mg/mL, no Excipient B; BGG about 280 mg/mL, 20 mM histidine pH 6, 25° C.
[3] = system: bevacizumab (AVASTIN®); assay: Viscosity of AVASTIN with caffeine, microVisc (Example 39); format: physicochemical; conditions: for % Viscosity Reduction from Excipient: 10 mg/mL caffeine vs no excipient; for Viscosity with 10 mg/mL added caffeine excipient: 10 mg/mL caffeine, 25 mM histidine HCl
Procedure: Viscosity was measured by RheoSense microVisc and concentration was determined by absorbance at 280 nm (extinction coefficient, 1.605 mL/mg). […].

[4] = system: BGG; conditions: Table 15; versus 130.6 cP with no excipient
Procedure: Each buffer solution contained different excipient or combination of excipients as described in the table below (Table 15). The viscosity of the solutions was measured as described in previous examples.

| Structure (SMILES) | DLS Viscosity, Replicate 1 [1] [cP] | DLS Viscosity, Replicate 2 [1] [cP] | Normalized Viscosity [2] | % Viscosity Reduction from Excipient ([3]; AVASTIN 190 mg/mL) [%] | Viscosity with 10 mg/mL added caffeine excipient ([3]; AVASTIN 190 mg/mL) [cP] | % Viscosity Reduction from Excipient ([3]; AVASTIN 213 mg/mL) [%] | Viscosity with 10 mg/mL added caffeine excipient ([3]; AVASTIN 213 mg/mL) [cP] | % Viscosity Reduction from Excipient ([3]; AVASTIN 266 mg/mL) [%] | Viscosity with 10 mg/mL added caffeine excipient ([3]; AVASTIN 266 mg/mL) [cP] | Viscosity Reduction (%) [4] [%] |
| --- | --- | --- | --- | --- | --- | --- | --- | --- | --- | --- |
| NC(=O)c1ccc[n+]([C@@H]2O[C@H](COP(=O)([O-])O)[C@@H](O)[C@H]2O)c1 [Nicotinamide mononucleotide] | 33.6 | 22.2 | – | – | – | – | – | – | – | – |
| Cn1c(=O)c2c(ncn2C)n(C)c1=O [Caffeine] | – | – | 0.77 | 36 | 13 | 73 | 22 | 62 | 113 | 33 |
